# Reference: paper PMC3297008, “Novel Marine Phenazines as Potential Cancer Chemopreventive and Anti-Inflammatory Agents” (Marine Drugs, 2012)
# Where two headings read alike, the source gives them in different places.
# Legend:
# [1] = system: glutathione S-transferase (GST); parameters: method as in PMID 21187465; details: cell culture; cited from earlier work
# [2] = parameters: method as in PMID 21187465; details: cited from earlier work
# [3] = system: quinone reductase 1 (NQ01, QR1); parameters: method as in PMID 21187465; details: cell culture; cited from earlier work
# NFκB [4] = system: NFκB; parameters: method as in PMID 21105712; details: earlier work; read-out: IC50, inhibition of NFκB; cited from earlier work
# iNOS = system: iNOS; parameters: method as in PMID 21105712; details: cited from earlier work
# NFκB [5] = experiment: TNF-α-induced NFκB luciferase reporter assay in stably-transfected human embryonic kidney cells 293; type: cell-based; details: human embryonic kidney cells 293 NFκB reporter, TNF-α 2 ng/mL, 6 h; read-out: IC50, inhibition of TNF-α-induced NFκB activity
# Description: Activation of NFκB may promote cell proliferation or prevent cell death through apoptosis. Inhibition of NFκB signaling has potential application for the treatment or prevention of cancer; some inhibitors are known. […] […].
# We employed human embryonic kidney cells 293 Panomic (Fremont, CA, USA) for monitoring changes occurring along the NFκB pathway. Stable constructed cells were seeded into sterile 96-well plate at 20 × 10^3 cells per well. Cells maintained in Dulbecco’s modified Eagle’s medium (DMEM) Invitrogen Co. (Carlsbad, CA, USA), supplemented with 10% FBS, 100 units/mL penicillin, 100 µg/mL streptomycin, 2 mM L-glutamine. After 48 h incubation, the medium was replaced and cells were treated with various concentration of test substances dissolved in PBS. TNF-α (Human, Recombinant, E. coli, Calbiochem, Gibbstown, NJ, USA) was used as an activator at a concentration of 2 ng/mL (0.14 nM). The plate was incubated for 6 h. Spent medium was discarded and the cells were washed once with PBS. Cells were lysed using 50 µL (for 96-well plate) Reporter Lysis Buffer from Promega, by incubating for 5 min on a shaker, and stored at −80 °C. The luciferase assay was performed using the Luc assay system from Promega (Madison, WI, USA). The gene product, luciferase enzyme, reacts with luciferase substrate, emitting light which was detected using a luminometer (LUMIstar Galaxy BMG). Data for NFκB constructs are expressed as IC50 values (i.e., concentration required to inhibit TNF-activated NFκB activity by 50%).
# [6] = system: PGE2 production in LPS-induced RAW 264.7 cells; experiment: LPS-induced PGE2 production in RAW 264.7 cells (ELISA); type: cell-based; details: Mus musculus
# Description: RAW 264.7 cells (1 × 10^5 cells/well, 200 µL) were incubated in a 96-well culture plate in the presence of 5% CO2 at 37 °C for 24 h. The medium was changed to non-colored DMEM containing 5% FBS, and the cells were treated with various concentrations of compounds for 30 min followed by 1 μg/mL of LPS treatment for 24 h. Cell media were collected, diluted 18-times and used for measuring PGE2. Nunc-Immuno 96-well plates were coated with secondary antibody (goat anti-mouse IgG) affinity purified (Jackson Immuno Research Laboratories). Aliquots of cell media were added to the immune plate with primary PGE2 monoclonal antibody (Cayman Chemical) and a tracer PGE2-acetylcholinesterase (Cayman Chemical) and incubated overnight at room temperature in the dark. The next day, the wells were aspirated, washed, 200 µL of Elman’s reagent was added in each well, and incubated 2–5 h at 37 °C out of direct light until control wells reach an optical density 0.4–0.5. Gentle rotating/shaking was used to decrease the time required for color development. Absorbance was read at 412 nm. The PGE2 concentration of each sample was calculated from a PGE2 standard curve (PGE2 from Cayman Chemical). The percent inhibition as a function of the inhibitor concentration was graphed to determine the IC50 values (concentration at which there was 50% inhibition).
# RAW 264.7 cells = experiment: Cell viability (SRB) of RAW 264.7 cells in the NO assay; type: cell-based; details: 50 µM
# [7] = system: NO production in LPS-induced RAW 264.7 cells; experiment: LPS-induced NO production in RAW 264.7 cells (Griess reagent); details: Mus musculus
# Description: The amount of nitrite was measured using the Griess reagent to assess the NO production [47, 48]. […] The cells were treated with various concentrations of compounds dissolved in phenol-red free DMEM for 30 min followed by 1 μg/mL of LPS treatment for 24 h. […] The standard curve was created by using known concentrations of sodium nitrite.
smiles,measurement,setting,value
"Oc1c(Br)cc(Br)c2nc3ccccc3nc12 [2,4-dibromo-1-hydroxyphenazine]",activation of glutathione S-transferase (GST),[1],activate
same,bioavailability,[2],poor bioavailability
same,in vivo activity,[2],low
same,activation of QR1,[3],activate
Oc1c(Br)ccc2nc3ccccc3nc12 [2-bromo-1-hydroxyphenazine],IC50,NFκB [4],73 µM
same,inhibition of iNOS activity,iNOS,did not inhibit iNOS activity
"Cc1ccc(S(=O)(=O)N[C@@H](Cc2ccccc2)C(=O)CCl)cc1 [TPCK, N-tosyl-L-phenylalanyl chloromethyl ketone, reference compound]",IC50,NFκB [5],3.8 µM
"Oc1ccc(/C=C/c2cc(O)cc(O)c2)cc1 [Resveratrol, resveratrol, reference compound]",inhibition at 50 µM,"[6]; RAW264.7, read-out: PGE2 % inhibition (50 µM)",70.2 ± 13.9%
same,IC50,"[6]; RAW264.7, read-out: PGE2 IC50",2.5 ± 0.43 µM
same,NO % cell survival,RAW 264.7 cells,86.9 ± 3.9%
same,inhibition at 50 µM,"[7]; RAW264.7, read-out: NO % inhibition (50 µM), LPS-induced RAW 264.7 cells, 50 µM",93 ± 0.8%
same,IC50,"[7]; RAW264.7, read-out: NO IC50",31.9 ± 1.8 µM
same,IC50,NFκB [5],2.5 ± 0.3 µM
"Cc1ccc(S(=O)(=O)/C=C/C#N)cc1 [BAY-11-7082, reference compound]",IC50,NFκB [5],2 ± 0.28 µM
